# Results published in patent publication US20240139217A1, “FORMULATIONS OF CANNABINOIDS” (ADD Advanced Drug Deliver Technologies LTD., priority 2021, published 2024).
# Assay: Clinical study of bioavailability and pharmacokinetic properties, multiple oral dose crossover
# Type: in vivo, healthy subjects
# Settings: Mean; analyte cannabidiol in plasma; 1,500 mg CBD oral twice daily over 7 days after a light meal; 144-168 h
# Procedure: Bioavailability and pharmacokinetic properties of cannabidiol when administered orally in the form of the above described CBD granules containing 29.7% w/w cannabidiol was assessed in a clinical study.
# The study involved a comparison with a reference product, an oily cannabidiol solution (DAC C-052 “Cannabidiol”/NRF 22.10 “Ölige Cannabidiol-Lösung 100 mg/ml” (“Oily cannabidiol solution 100 mg/ml”)) and was set up as an open-label, randomised (order of treatments), balanced, multiple dose trial was performed in a 2-period, 2-sequence-crossover design with direct switch-over.
# Eighteen (18) healthy subjects of both sexes were randomised. The inclusion criteria involved a body-mass index (BMI)≥18.5 kg/m^2 and ≤30.0 kg/m^2.
# The investigational medicinal products were administered after a light meal as single oral doses of 1500 mg cannabidiol (i.e., 5.051 g granules dispersed in water or 15 ml solution) twice daily (i.e., every 12 h) over 7 consecutive days.
# Steady-state characterisation was performed over 2 dosing intervals. […]
# Cannabidiol (CBD) and its metabolite 7-hydoxy cannabidiol (7-OH-CBD) in plasma samples were analysed by use of a validated LC-MS/MS; LLOQ for CBD was 5.00 ng/ml and for 7-OH-CBD was 1.000 ng/ml.
smiles,measurement,value
"C=C(C)[C@@H]1CCC(C)=C[C@H]1c1c(O)cc(CCCCC)cc1O [cannabidiol, 2-[(1R,6R)-3-methyl-6-(1-methylethenyl)-2-cyclohexen-1-yl]-5-pentyl-1,3-benzenediol]","PTF %,144-168",about 250%
